Test results published in ChEMBL document CHEMBL1152527, “Tessaric acid derivatives induce G2/M cell cycle arrest in human solid tumor cell lines” (2009).
The source made the active and inactive calls. No cut-off for these calls is given here.

Experiments:
Format in all cases: functional
T47D [1] = assay: Growth inhibition of human T47D cells after 48 hrs by sulforhodamine B assay
HBL-100 = assay: Growth inhibition of human HBL100 cells after 48 hrs by sulforhodamine B assay; settings: HBL-100, 48 h
SW1573 [2] = assay: Growth inhibition of human SW1573 cells after 48 hrs by sulforhodamine B assay; settings: SW1573, 48 h
A2780 = assay: Growth inhibition of human A2780 cells after 48 hrs by sulforhodamine B assay; settings: A2780, 48 h
WiDr [3] = assay: Growth inhibition of human WiDr cells after 48 hrs by sulforhodamine B assay
HeLa [4] = assay: Growth inhibition of human HeLa cells after 48 hrs by sulforhodamine B assay
SW1573 [5] = assay: Cell cycle arrest in human SW1573 cells assessed as accumulation at S phase at 35 uM after 24 hrs by propidium iodide staining-based FACS analysis
WiDr [6] = assay: Cell cycle arrest in human WiDr cells assessed as accumulation at G2/M phase at 35 uM after 24 hrs by propidium iodide staining-based FACS analysis
HeLa [7] = assay: Cell cycle arrest in human HeLa cells assessed as accumulation at G2/M phase at 15 uM after 24 hrs by propidium iodide staining-based FACS analysis
SW1573 [8] = assay: Cell cycle arrest in human SW1573 cells assessed as decrease in accumulation at G0/G1 phase at 35 uM after 24 hrs by propidium iodide staining-based FACS analysis
T47D [9] = assay: Cell cycle arrest in human T47D cells assessed as increase in accumulation at sub G0 phase at 15 to 35 uM treated for 24 hrs measured after 24 hrs of drug washout by propidium iodide staining-based FACS analysis
SW1573 [10] = assay: Cell cycle arrest in human SW1573 cells assessed as accumulation at G2/M phase at 35 uM after 24 hrs by propidium iodide staining-based FACS analysis
WiDr [11] = assay: Cell cycle arrest in human WiDr cells assessed as decrease in accumulation at S phase at 35 uM after 24 hrs by propidium iodide staining-based FACS analysis
SW1573 [12] = assay: Cell cycle arrest in human SW1573 cells assessed as accumulation at G2/M phase at 15 uM after 24 hrs by propidium iodide staining-based FACS analysis
T47D [13] = assay: Cell cycle arrest in human T47D cells assessed as decrease in accumulation at S phase at 35 uM after 24 hrs by propidium iodide staining-based FACS analysis
HeLa [14] = assay: Cell cycle arrest in human HeLa cells assessed as decrease in accumulation at S phase at 15 uM after 24 hrs by propidium iodide staining-based FACS analysis
HeLa [15] = assay: Cell cycle arrest in human HeLa cells assessed as accumulation at G2/M phase at 35 uM after 24 hrs by propidium iodide staining-based FACS analysis
HeLa [16] = assay: Cell cycle arrest in human HeLa cells assessed as accumulation at S phase at 35 uM after 24 hrs by propidium iodide staining-based FACS analysis
T47D [17] = assay: Cell cycle arrest in human T47D cells assessed as accumulation at G2/M phase at 35 uM after 24 hrs by propidium iodide staining-based FACS analysis
SW1573 [18] = assay: Cell cycle arrest in human SW1573 cells assessed as decrease in accumulation at S phase at 15 uM after 24 hrs by propidium iodide staining-based FACS analysis
WiDr [19] = assay: Cell cycle arrest in human WiDr cells assessed as increase in accumulation at sub G0 phase at 15 to 35 uM treated for 24 hrs measured after 24 hrs of drug washout by propidium iodide staining-based FACS analysis
HeLa [20] = assay: Cell cycle arrest in human HeLa cells assessed as decrease in accumulation at G0/G1 phase at 35 uM after 24 hrs by propidium iodide staining-based FACS analysis

C=C(C(=O)O)[C@@H]1CC[C@@]2(C)CCCC(C)=C2C1
pGI50 (T47D [1]): 4 | GI50 (T47D [1]; read-out: GI50): > 100 µM | pGI50 (HBL-100): 4 | GI50 (HBL-100; read-out: GI50): > 100 µM | pGI50 (SW1573 [2]): 4 | GI50 (SW1573 [2]; read-out: GI50): > 100 µM | pGI50 (A2780): 4 | GI50 (A2780; read-out: GI50): > 100 µM | pGI50 (WiDr [3]): 4 | GI50 (WiDr [3]; read-out: GI50): > 100 µM | pGI50 (HeLa [4]): 4 | GI50 (HeLa [4]; read-out: GI50): > 100 µM

C=C(C(=O)OC)[C@@H]1CCC2=C[C@H](O)C[C@H](C)[C@@]2(C)C1
Activity (SW1573 [5]): Active | GI50 (T47D [1]; read-out: GI50): 11 µM | GI50 (T47D [1]; read-out: pGI50 (converted)): 4.97 µM | Activity (WiDr [6]): Active | Activity (HeLa [7]): Active | Activity (SW1573 [8]): Active | Activity (T47D [9]): Active | Activity (SW1573 [10]): Active | GI50 (HBL-100; read-out: GI50): 12 µM | GI50 (HBL-100; read-out: pGI50 (converted)): 4.91 µM | Activity (WiDr [11]): Active | Activity (SW1573 [12]): Active | GI50 (SW1573 [2]; read-out: GI50): 5 µM | GI50 (SW1573 [2]; read-out: pGI50 (converted)): 5.3 µM | Activity (T47D [13]): Active | GI50 (A2780; read-out: GI50): 11 µM | GI50 (A2780; read-out: pGI50 (converted)): 4.95 µM | Activity (HeLa [14]): Active | Activity (HeLa [15]): Active | Activity (HeLa [16]): Active | Activity (T47D [17]): Active | Activity (SW1573 [18]): Active | GI50 (WiDr [3]; read-out: GI50): 17 µM | GI50 (WiDr [3]; read-out: pGI50 (converted)): 4.77 µM | Activity (WiDr [19]): Active | GI50 (HeLa [4]; read-out: GI50): 29 µM | GI50 (HeLa [4]; read-out: pGI50 (converted)): 4.54 µM | Activity (HeLa [20]): Active

C=C(C(=O)OC)[C@@H]1CC[C@@]2(C)CCCC(C)=C2C1
pGI50 (T47D [1]): 4.48 | GI50 (T47D [1]; read-out: GI50): 35 µM | GI50 (HBL-100; read-out: GI50): 14 µM | GI50 (HBL-100; read-out: pGI50 (converted)): 4.86 µM | GI50 (SW1573 [2]; read-out: GI50): 18 µM | GI50 (SW1573 [2]; read-out: pGI50 (converted)): 4.74 µM | GI50 (A2780; read-out: GI50): 18 µM | GI50 (A2780; read-out: pGI50 (converted)): 4.74 µM | GI50 (WiDr [3]; read-out: GI50): 38 µM | GI50 (WiDr [3]; read-out: pGI50 (converted)): 4.45 µM | GI50 (HeLa [4]; read-out: GI50): 13 µM | GI50 (HeLa [4]; read-out: pGI50 (converted)): 4.88 µM

CC[C@@]1(O)C(=O)OCc2c1cc1n(c2=O)Cc2cc3ccccc3nc2-1 [CAMPTOTHECIN]
GI50 (T47D [1]; read-out: GI50): 1.9 µM | GI50 (HBL-100; read-out: GI50): 0.23 µM | GI50 (SW1573 [2]; read-out: GI50): 0.21 µM | GI50 (A2780; read-out: GI50): 0.46 µM | GI50 (WiDr [3]; read-out: GI50): 1.7 µM | GI50 (HeLa [4]; read-out: GI50): 1.3 µM

O=c1[nH]cc(F)c(=O)[nH]1 [FLUOROURACIL]
GI50 (T47D [1]; read-out: GI50): 29 µM | GI50 (HBL-100; read-out: GI50): 5.5 µM | GI50 (SW1573 [2]; read-out: GI50): 4.1 µM | GI50 (A2780; read-out: GI50): 4.4 µM | GI50 (WiDr [3]; read-out: GI50): 50 µM | GI50 (HeLa [4]; read-out: GI50): 19 µM
